Source: patent US20210267939A1, “COMPOSITIONS AND METHODS FOR TREATING NAFLD/NASH AND RELATED DISEASE PHENOTYPES” (priority 2018, published 2021)
“Also recorded” adds a separate entry of the source.

Columns and labels:
Format in all cases: in vivo
[1] = tested on: BCKDH; assay: Tissue BCKDH activity assay in treated Zucker fatty rats; details: ZFR, BT2 20 mg/kg i.p. daily for one week, vs vehicle
Procedure: (§1) Individually housed, male 12 week-old Zucker fatty rats (ZFR, Charles River Laboratories) maintained on a custom control low fat (LF) diet (A11072001, Research Diets) were used for the BDK inhibition and PPM1K overexpression studies. For the BDK inhibition study, ZFR were administered the small molecule BDK inhibitor 3,6-dichlorobenzo[b]thiophene-2-carboxylic acid (BT2, Sigma) daily at a dose of 20 mg/kg dissolved in 200 ul of sterile dimethylsulfoxide by i.p. injection for 7 days. The control group was administered an equal volume of vehicle each day. On day 6, following an overnight fast, ZFR were subjected to a 1 g/kg i.p. glucose tolerance test (GTT) precisely 1 hr after administration of BT2 (20 mg/kg i.p.) or vehicle. The glucose tolerance test was performed as described (White, et al., 2016). Following the GTT, rats were returned to their normal cages and provided free access to food and water. Indirect calorimetry was performed in a second cohort of BT2 treated rats on day 6 of BT2 administration. Here ad-libitum fed rats were injected with BT2 (20 mg/kg i.p.) or vehicle immediately prior to being placed in an eight-chamber Oxymax system (Columbus Instruments) for seven hours. During their time in the metabolic cages all rats had free access to food and water. The next morning, rats were euthanized in the fed state precisely 1 hr following a final dose of BT2 (20 mg/kg i.p.) or vehicle.
For the PPM1K overexpression study, male 12 week-old ZFR were administered two doses of cyclosporine (15 mg/kg i.p., Novartis) prior to adenovirus administration. The first dose of cyclosporine was given 24 hours prior and the second dose was administered immediately prior to tail vein injection of Ad-CMV-PPM1K or Ad-CMV-GFP adenovirus (2×10^12 viral particles per kg). Both viruses use the CMV promoter to drive transgene expression. […]
BCKDH activity assay: Tissue BCKDH activity was measured. […] The ^14CO2 contained in the trap was counted in a Beckman Coulter LS6500 liquid scintillation counter.

[2] = tested on: Zucker fatty rats; assay: Circulating BCAA and BCKA in treated Zucker fatty rats; details: ZFR, BT2 20 mg/kg i.p. daily for one week, vs vehicle
Procedure: Individually housed, male 12 week-old Zucker fatty rats (ZFR, Charles River Laboratories) maintained on a custom control low fat (LF) diet (A11072001, Research Diets) were used for the BDK inhibition and PPM1K overexpression studies. For the BDK inhibition study, ZFR were administered the small molecule BDK inhibitor 3,6-dichlorobenzo[b]thiophene-2-carboxylic acid (BT2, Sigma) daily at a dose of 20 mg/kg dissolved in 200 ul of sterile dimethylsulfoxide by i.p. injection for 7 days. The control group was administered an equal volume of vehicle each day. […]
(§2) Metabolite profiling: Amino acids were measured in plasma and liver samples, and acylcarnitines in liver samples. […]
Plasma concentrations of the alpha-keto acids of leucine (α-keto-isocaproate, KIC), isoleucine (α-keto-β-methylvalerate, KMV) and valine (α-keto-isovalerate, KIV) were measured by LC-MS as previously described (Glynn et al., 2015; White et al., 2016). Other plasma analytes were measured on a Beckman DxC600 autoanalyzer, using reagents for lactate, total cholesterol, and triglycerides from Beckman, and non-esterified fatty acids (NEFA) and ketones (total and 3-hydroxybutyrate) from Wako (Richmond, Va.). Glycerol was measured using reagents from TG-B by Roche Diagnostics (Indianapolis, Ind.). Liver triglycerides were quantified using the triglyceride quantification kit from Abcam. […]

[3] = tested on: Zucker fatty rats; assay: Indirect calorimetry in BT2-treated Zucker fatty rats; details: ZFR, BT2 20 mg/kg i.p., day 6, hours following administration
Procedure: as §1, with “The next morning, rats were euthanized in the fed state precisely 1 hr following a final dose of BT2 (20 mg/kg i.p.) or vehicle.” left out

[4] = tested on: Zucker fatty rats; assay: Tissue acylcarnitine profiling in treated Zucker fatty rats; details: ZFR, BT2 20 mg/kg i.p. daily for one week, vs vehicle
Procedure: as §1, with “The next morning, rats were euthanized in the fed state precisely 1 hr following a final dose of BT2 (20 mg/kg i.p.) or vehicle.” left out
as §2

For O=C(O)c1sc2cc(Cl)ccc2c1Cl [BT2, 3,6-dichlorobenzo[b]thiophene-2-carboxylic acid], which “BCKDH enzyme activity in heart” value [1] is on record?
Its value is “increased”.

And the “BCKDH enzyme activity in liver” value [1]?
The value was “increased”.

What about the “BCKDH enzyme activity in skeletal muscle” value [1] of the same compound?
The value was “small increment”.

And the “circulating BCAA levels” value [2]?
Its value is “lowered”.

And the “circulating branched-chain α-ketoacids (BCKA)” value ([2]; 20 mg/kg)?
Its value is “more dramatic lowering; also recorded: potently lowers”.

And the “respiratory exchange ratio (RER)” value [3]?
The value was “lowered”.

And the “even chain acyl-carnitines in liver” value [4]?
The value was “increases”.

And the “even chain acyl-carnitines in skeletal muscle” value [4]?
Its value is “but not in skeletal muscle”.
